Laboratory results from patent publication US20250066363A1, “Bicyclic DGK Inhibitors” (Incyte Corporation, priority 2023, published 2025).
pIC50: −log10 of the molar value.

Legend:
[1] = target: DGKα (Homo sapiens (Human), UniProt P23743); experiment: In vitro DGKα inhibition assay (ADP-Glo); type: biochemical; conditions: first column of Table A
Procedure: (§1) The DGKα and DGKζ biochemical reactions were performed using His-tagged human recombinant enzymes (Signal Chem, DGKα, #D21-10BH; DGKζ, #D30-1OH)) and DLG (Dilauroyl-sn-glycerol) lipid substrate (Signal Chem, #D430-59). ADP-Glo assay was performed using ADP-Glo™ kinase Assay kit (Promega, #V9104). The reactions were carried out in assay buffer containing 40 mM Tris, pH 7.5, 0.1% CHAPS, 0.1% Prionex, 40 mM NaCl, 5 mM MgCl2, 1 mM CaCl2, and 1 mM DTT. DGKα reactions contained 0.1 nM DGKα, 50 μM ATP, and 20 μM DLG. And DGKζ reactions contained 0.4 nM DGKζ, 30 μM ATP, and 20 μM DLG.
(§2) For compound inhibition studies, 40 nL test compound in DMSO was added to wells of white polystyrene plates in 384-well (Greiner, #784075) or 1536-well format (Greiner, #782075). Compounds were added with top concentration of 2 mM with 11 point, 3-fold dilution series. Enzyme solution (contains 2× DGK enzyme concentration in 1× assay buffer) was added to the plate in 2 μL/well volume, followed by 2 μL/well of substrate solution (contains 2× concentration of ATP and DLG substrate in 1× assay buffer). Plates were then centrifuged for 1 min at 1200 RPM and sealed or lidded. For 4 μL reaction volume, test compounds were therefore diluted 100× to final top concentration of 20 μM. After 90 minute incubation, reactions were quenched by addition of 2 μL/well Promega ADP-Glo Reagent, followed by centrifugation and lidding. After 60 min incubation, 2 μL/well Promega Kinase Detection Reagent was added, plates centrifuged, and incubated for 30 min. Plates were then read using Luminescence method on BMG PHERAstar FSX plate reader. Percent inhibition was calculated and IC50s were determined using 4-parameter fit in Genedata Screener. Labcyte Echo acoustic dispenser was used for compound addition, and Formulatrix Tempest liquid handler was used for all reagent dispenses.

[2] = target: DGKζ (Homo sapiens (Human), UniProt Q13574); experiment: In vitro DGKζ inhibition assay (ADP-Glo); type: biochemical; conditions: second column of Table A, head printed DGKα, presumably DGKζ; His-tagged human recombinant DGKζ 0.4 nM, 30 μM ATP, 20 μM DLG
Procedure: as §1, §2

[3] = His-tagged human recombinant DGKα 0.1 nM, 50 μM ATP, 20 μM DLG

Chain of DGKζ (Q13574 whole entry): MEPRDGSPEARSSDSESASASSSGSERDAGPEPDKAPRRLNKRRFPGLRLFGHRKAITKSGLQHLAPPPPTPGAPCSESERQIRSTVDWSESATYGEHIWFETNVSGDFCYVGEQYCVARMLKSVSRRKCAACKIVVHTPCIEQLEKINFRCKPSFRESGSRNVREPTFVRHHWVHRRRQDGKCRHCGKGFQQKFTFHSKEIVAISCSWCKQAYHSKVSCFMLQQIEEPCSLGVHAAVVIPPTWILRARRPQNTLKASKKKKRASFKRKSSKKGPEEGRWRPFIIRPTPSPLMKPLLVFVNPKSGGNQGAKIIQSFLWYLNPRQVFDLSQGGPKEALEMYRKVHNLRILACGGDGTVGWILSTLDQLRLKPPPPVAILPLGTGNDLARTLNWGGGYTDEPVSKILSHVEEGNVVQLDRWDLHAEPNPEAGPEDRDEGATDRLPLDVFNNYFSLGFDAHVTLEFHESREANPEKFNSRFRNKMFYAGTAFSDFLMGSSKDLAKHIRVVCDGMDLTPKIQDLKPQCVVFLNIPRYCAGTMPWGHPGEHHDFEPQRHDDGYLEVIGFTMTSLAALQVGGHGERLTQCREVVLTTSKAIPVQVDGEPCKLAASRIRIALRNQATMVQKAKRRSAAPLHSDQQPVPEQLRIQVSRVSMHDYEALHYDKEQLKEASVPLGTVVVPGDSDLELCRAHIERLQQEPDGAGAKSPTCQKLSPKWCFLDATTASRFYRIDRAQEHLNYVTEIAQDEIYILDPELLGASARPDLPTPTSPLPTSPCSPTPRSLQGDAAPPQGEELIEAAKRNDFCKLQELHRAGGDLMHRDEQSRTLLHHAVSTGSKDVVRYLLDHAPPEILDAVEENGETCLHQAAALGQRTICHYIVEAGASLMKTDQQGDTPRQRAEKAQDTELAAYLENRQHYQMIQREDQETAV
Chain of DGKα (P23743 whole entry): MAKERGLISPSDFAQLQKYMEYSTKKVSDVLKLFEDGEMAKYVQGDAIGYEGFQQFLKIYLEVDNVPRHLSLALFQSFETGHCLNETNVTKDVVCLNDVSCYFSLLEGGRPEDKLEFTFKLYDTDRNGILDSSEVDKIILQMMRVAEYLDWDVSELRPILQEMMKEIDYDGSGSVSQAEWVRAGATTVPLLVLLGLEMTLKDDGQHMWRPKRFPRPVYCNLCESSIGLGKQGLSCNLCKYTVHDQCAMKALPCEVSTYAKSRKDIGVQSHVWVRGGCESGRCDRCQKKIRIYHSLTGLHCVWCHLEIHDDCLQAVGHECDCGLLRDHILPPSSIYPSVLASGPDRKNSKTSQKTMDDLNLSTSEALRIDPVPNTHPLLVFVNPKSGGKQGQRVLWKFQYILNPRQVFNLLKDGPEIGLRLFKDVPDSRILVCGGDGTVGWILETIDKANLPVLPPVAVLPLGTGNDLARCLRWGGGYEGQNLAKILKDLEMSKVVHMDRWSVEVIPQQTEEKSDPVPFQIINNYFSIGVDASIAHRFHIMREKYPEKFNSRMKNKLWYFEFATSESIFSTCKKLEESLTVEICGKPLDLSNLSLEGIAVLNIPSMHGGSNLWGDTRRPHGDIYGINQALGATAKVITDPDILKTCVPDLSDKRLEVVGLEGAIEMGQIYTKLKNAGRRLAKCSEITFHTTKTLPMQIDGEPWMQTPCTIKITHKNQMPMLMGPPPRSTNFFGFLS

SMILES	pIC50 [1, 3]	pIC50 [2]	pIC50 ([1]; cell prints a figure instead of a class symbol (possibly a misprint of +))
CC[C@@H]1CN(c2nc(=O)n(C)c3c2nc(C)n3C[C@@H]2CCCO2)[C@@H](C)CN1C(c1ccc(C(F)(F)F)cc1)C1CC(F)(F)C1 (stereo partly drawn) [Example 38, 6-((2S,5R)-4-((3,3-Difluorocyclobutyl)(4-(trifluoromethyl)phenyl)methyl)-5-ethyl-2-methylpiperazin-1-yl)-3,8-dimethyl-9-(((S)-tetrahydrofuran-2-yl)methyl)-3,9-dihydro-2H-purin-2-one]	≥ 8.00	≥ 8.00	
Cc1nc2c(N3C[C@@H](C)N(C(c4ccc(Cl)c(F)c4)C4CC(F)(F)C4)C[C@@H]3C)nc(=O)n(C)c2n1C[C@@H]1CCCO1 (stereo partly drawn) [Example 39, 6-((2S,5R)-4-((4-Chloro-3-fluorophenyl)(3,3-difluorocyclobutyl)methyl)-2,5-dimethylpiperazin-1-yl)-3,8-dimethyl-9-(((S)-tetrahydrofuran-2-yl)methyl)-3,9-dihydro-2H-purin-2-one]	≥ 8.00	≥ 8.00	
Cc1nc2c(N3C[C@@H](C)N(C(c4ccc(C(F)(F)F)cc4)C4CC(F)(F)C4)C[C@@H]3C)cc(=O)n(C)c2n1C[C@@H]1CCCO1 (stereo partly drawn) [Example 40, 7-((2S,5R)-4-((3,3-Difluorocyclobutyl)(4-(trifluoromethyl)phenyl)methyl)-2,5-dimethylpiperazin-1-yl)-2,4-dimethyl-3-(((S)-tetrahydrofuran-2-yl)methyl)-3,4-dihydro-5H-imidazo[4,5-b]pyridin-5-one]	≥ 7.00	≥ 7.00	
Cc1nc2c(N3C[C@@H](CO)N(C(c4ccc(C(F)(F)F)cc4)C4CC(F)(F)C4)C[C@@H]3C)nc(=O)n(C)c2n1C[C@@H]1CCCO1 (stereo partly drawn) [Example 41, 6-((2S,5S)-4-((3,3-Difluorocyclobutyl)(4-(trifluoromethyl)phenyl)methyl)-5-(hydroxymethyl)-2-methylpiperazin-1-yl)-3,8-dimethyl-9-(((S)-tetrahydrofuran-2-yl)methyl)-3,9-dihydro-2H-purin-2-one]		≥ 8.00	9.00
C[C@@H]1CN(c2nc(=O)n(C)c3c2nnn3C[C@H]2CCCO2)[C@@H](C)CN1C(c1ccc(C(F)(F)F)cc1)C1CC(F)(F)C1 (stereo partly drawn) [Example 43, 7-((2S,5R)-4-((3,3-Difluorocyclobutyl)(4-(trifluoromethyl)phenyl)methyl)-2,5-dimethylpiperazin-1-yl)-4-methyl-3-(((R)-tetrahydrofuran-2-yl)methyl)-3,4-dihydro-5H-[1,2,3]triazolo[4,5-d]pyrimidin-5-one]	≥ 8.00	≥ 8.00	
CC[C@@H]1CN(c2nc(=O)n(C)c3c2nnn3C[C@H]2CCCO2)[C@@H](C)CN1C(c1ccc(C(F)(F)F)cc1)C1CC(F)(F)C1 (stereo partly drawn) [Example 44, 7-((2S,5R)-4-((3,3-Difluorocyclobutyl)(4-(trifluoromethyl)phenyl)methyl)-5-ethyl-2-methylpiperazin-1-yl)-4-methyl-3-(((R)-tetrahydrofuran-2-yl)methyl)-3,4-dihydro-5H-[1,2,3]triazolo[4,5-d]pyrimidin-5-one]	≥ 8.00	≥ 8.00	
CC[C@@H]1CN(c2nc(=O)n(C)c3c2nnn3C[C@H]2CCCO2)[C@@H](C)CN1C(c1ccc(Cl)cc1)C1CC(F)(F)C1 (stereo partly drawn) [Example 45, 7-((2S,5R)-4-((4-Chlorophenyl)(3,3-difluorocyclobutyl)methyl)-5-ethyl-2-methylpiperazin-1-yl)-4-methyl-3-(((R)-tetrahydrofuran-2-yl)methyl)-3,4-dihydro-5H-[1,2,3]triazolo[4,5-d]pyrimidin-5-one]	≥ 8.00	≥ 8.00	
Cc1nc2c(N3C[C@@H](C)N([C@H](c4ccc5cc(F)ccc5n4)C(C)C)C[C@@H]3C)nc(=O)n(C)c2n1C[C@@H]1CCCO1 [Example 47, 6-((2S,5R)-4-((S)-1-(6-Fluoroquinolin-2-yl)-2-methylpropyl)-2,5-dimethylpiperazin-1-yl)-3,8-dimethyl-9-(((S)-tetrahydrofuran-2-yl)methyl)-3,9-dihydro-2H-purin-2-one]	≥ 8.00	≥ 8.00	
Cc1nc2c(N3C[C@@H](C)N([C@@H](c4ccc5cc(F)ccc5n4)C(C)C)C[C@@H]3C)nc(=O)n(C)c2n1C[C@@H]1CCCO1 [Example 48, 6-((2S,5R)-4-((R)-1-(6-fluoroquinolin-2-yl)-2-methylpropyl)-2,5-dimethylpiperazin-1-yl)-3,8-dimethyl-9-(((S)-tetrahydrofuran-2-yl)methyl)-3,9-dihydro-2H-purin-2-one]	≥ 8.00	≥ 8.00	

Results, then the molecule that gave them:

pIC50 [1, 3]	pIC50 [2]	pIC50 ([1]; cell prints a figure instead of a class symbol (possibly a misprint of +))	SMILES
≥ 8.00	≥ 8.00		Cc1nc2c(N3C[C@@H](C)N([C@@H](c4ccc5ccc(C(F)(F)F)cc5n4)C(C)C)C[C@@H]3C)nc(=O)n(C)c2n1C[C@@H]1CCCO1 [Example 49, 6-((2S,5R)-2,5-Dimethyl-4-((R)-2-methyl-1-(7-(trifluoromethyl)quinolin-2-yl)propyl)piperazin-1-yl)-3,8-dimethyl-9-(((S)-tetrahydrofuran-2-yl)methyl)-3,9-dihydro-2H-purin-2-one]
≥ 8.00	≥ 8.00		Cc1nc2c(N3C[C@@H](C)N([C@H](c4ccc5ccc(C(F)(F)F)cc5n4)C(C)C)C[C@@H]3C)nc(=O)n(C)c2n1C[C@@H]1CCCO1 [Example 50, 6-((2S,5R)-2,5-dimethyl-4-((S)-2-methyl-1-(7-(trifluoromethyl)quinolin-2-yl)propyl)piperazin-1-yl)-3,8-dimethyl-9-(((S)-tetrahydrofuran-2-yl)methyl)-3,9-dihydro-2H-purin-2-one]
≥ 8.00	≥ 8.00		Cc1nc2c(N3C[C@@H](C)N([C@H](c4ccc(C(F)(F)F)cc4F)C(C)C)C[C@@H]3C)nc(=O)n(C)c2n1C[C@@H]1CCCO1 [Example 51, 6-((2S,5R)-4-((S)-1-(2-Fluoro-4-(trifluoromethyl)phenyl)-2-methylpropyl)-2,5-dimethylpiperazin-1-yl)-3,8-dimethyl-9-(((S)-tetrahydrofuran-2-yl)methyl)-3,9-dihydro-2H-purin-2-one]
≥ 8.00	≥ 8.00		Cc1nc2c(N3C[C@@H](C)N([C@@H](c4ccc(C(F)(F)F)cc4F)C(C)C)C[C@@H]3C)nc(=O)n(C)c2n1C[C@@H]1CCCO1 [Example 52, 6-((2S,5R)-4-((R)-1-(2-Fluoro-4-(trifluoromethyl)phenyl)-2-methylpropyl)-2,5-dimethylpiperazin-1-yl)-3,8-dimethyl-9-(((S)-tetrahydrofuran-2-yl)methyl)-3,9-dihydro-2H-purin-2-one]
≥ 7.00	≥ 7.00		Cc1nc2c(N3C[C@@H](C)N([C@H](c4ccc(C(F)(F)F)cc4)C(C)C)C[C@@H]3C)nc(=O)n(C)c2n1C[C@@H]1CCCO1 [Example 53, 6-((2S,5R)-2,5-Dimethyl-4-((S)-2-methyl-1-(4-(trifluoromethyl)phenyl)propyl)piperazin-1-yl)-3,8-dimethyl-9-(((S)-tetrahydrofuran-2-yl)methyl)-3,9-dihydro-2H-purin-2-one]
≥ 8.00	≥ 8.00		Cc1nc2c(N3C[C@@H](C)N([C@@H](c4ccc(C(F)(F)F)cc4)C(C)C)C[C@@H]3C)nc(=O)n(C)c2n1C[C@@H]1CCCO1 [Example 54, 6-((2S,5R)-2,5-dimethyl-4-((R)-2-methyl-1-(4-(trifluoromethyl)phenyl)propyl)piperazin-1-yl)-3,8-dimethyl-9-(((S)-tetrahydrofuran-2-yl)methyl)-3,9-dihydro-2H-purin-2-one]
≥ 8.00	≥ 8.00		Cc1nc2c(N3C[C@@H](C)N([C@H](c4ccc(C(F)F)c(F)c4)C(C)C)C[C@@H]3C)nc(=O)n(C)c2n1C[C@@H]1CCCO1 [Example 55, 6-((2S,5R)-4-((S)-1-(4-(Difluoromethyl)-3-fluorophenyl)-2-methylpropyl)-2,5-dimethylpiperazin-1-yl)-3,8-dimethyl-9-(((S)-tetrahydrofuran-2-yl)methyl)-3,9-dihydro-2H-purin-2-one]
≥ 8.00	≥ 8.00		Cc1nc2c(N3C[C@@H](C)N([C@@H](c4ccc(C(F)F)c(F)c4)C(C)C)C[C@@H]3C)nc(=O)n(C)c2n1C[C@@H]1CCCO1 [Example 56, 6-((2S,5R)-4-((R)-1-(4-(difluoromethyl)-3-fluorophenyl)-2-methylpropyl)-2,5-dimethylpiperazin-1-yl)-3,8-dimethyl-9-(((S)-tetrahydrofuran-2-yl)methyl)-3,9-dihydro-2H-purin-2-one]
≥ 8.00	≥ 8.00		CC(C)[C@@H](c1ccc(Cl)cc1)N1C[C@H](C)N(c2nc(=O)n(C)c3c2ncn3CC2(O)CCCC2)C[C@H]1C [Example 57, 6-((2S,5R)-4-((S)-1-(4-Chlorophenyl)-2-methylpropyl)-2,5-dimethylpiperazin-1-yl)-9-((1-hydroxycyclopentyl)methyl)-3-methyl-3,9-dihydro-2H-purin-2-on]
